According to patent US11572548B2, “Reaction mixture for synthesis of alpha1-2-fucosides” (The Regents of the University of California, priority 2015, dated 2023):
“Also recorded” adds a separate entry of the source.

Key:
His6-Te2FT [1] = target: T1, His6-Te2FT (Thermosynechococcus vestitus, UniProt Q8DK72); assay: Effects of metal ions, DTT and EDTA on α1-2-fucosyltransferase activity; type: biochemical, Thermosynechococcus elongatus BP-1; conditions: pH 7.5; for effect on α1-2-fucosyltransferase activity: 10 mM added; for effect on α1-2-fucosyltransferase activity / enhancement of α1-2-fucosyltransferase activity: acceptor Galβ1-3GlcNAcβ2AA; for enhancement of α1-2-fucosyltransferase activity: 5-20 mM added
Protocol: For metal effects, various concentrations (5 mM, 10 mM, or 20 mM) of MgCl2 or MnCl2 were added and EDTA (as a chelating agent) (10 mM) and DTT (10 mM) were used in a Tris-HCl buffer (pH 7.5, 200 mM) to analyze their effects on the α1-2-fucosyltransferase activity of His6-Te2FT for acceptor Galβ1-3GlcNAcβ2AA. Reaction without metal ions, EDTA and DTT was used as a control. The effects of metal ions Mg^2+ and Mn^2+ as well as DTT and the chelating agent EDTA on the α1-2-fucosyltransferase activity of His6-Te2FT toward and acceptor Galβ1-3GlcNAcβ2AA were examined at pH 7.5.

His6-Te2FT [2] = target: T1, His6-Te2FT; assay: Kinetics of α1-2-fucosyltransferase activity by HPLC assays; type: biochemical, Thermosynechococcus elongatus BP-1; conditions: for Km / kcat: 2FT activity, apparent, pH 6.0, 37° C., MgCl2 20 mM, other substrate fixed at 1 mM
Protocol: Typical enzymatic assays were carried out in duplicate in a total volume of 10 μL in Tris-HCl buffer (pH 6.0, 200 mM) containing MgCl2 (20 mM), GDP-fucose, Galβ1-3GlcNAcβ2AA, and the recombinant His6-Te2FT (0.75 μg). All reactions were allowed to proceed for 10 min at 37° C. Apparent kinetic parameters were obtained by varying the GDP-fucose concentration from 0.1 to 10.0 mM (0.1, 0.2, 0.4, 1.0, 5.0, and 10.0 mM) and a fixed concentration of Galβ1-3GlcNAcβ2AA (1 mM); or a fixed concentration of GDP-fucose (1 mM) and varied concentrations of Galβ1-3GlcNAcβ2AA from 0.1 to 10.0 mM (0.1, 0.2, 0.4, 5.0, and 10.0 mM). The reaction mixture was quenched by boiling for 2 minutes and diluted 60-fold for detection. Apparent kinetic parameters were obtained by fitting the data into the Michaelis-Menten equation using Grafit 5.0.

His6-Te2FT [3] = target: T1, His6-Te2FT; assay: Kinetics of GDP-fucose hydrolysis by capillary electrophoresis assays; type: biochemical, Thermosynechococcus elongatus BP-1
Protocol: The enzymatic assays were carried out in duplicate in a total volume of 10 μL in Tris-HCl buffer (200 mM, pH 9.0) containing MgCl2 (20 mM), GDP-fucose and the recombinant protein (4.5 μg). Reactions were allowed to proceed for 30 min at 37° C. Apparent kinetic parameters were obtained by varying the final GDP-fucose concentration from 0.4 to 2.0 mM (0.4, 0.5, 0.6, 0.8, 1.0 and 2.0 mM). Apparent kinetic parameters were obtained by fitting the data (the average values of duplicate assay results) into the Michaelis-Menten equation using Grafit 5.0.

[4] = system: Bifidobacterium longum subsp. infantis (B. infantis) ATCC 15697; assay: Growth of bifidobacteria on mMRS medium with substrate as sole carbohydrate source; type: cell-based; conditions: 2% (wt/vol) in mMRS, 37° C., anaerobic, OD600
Protocol: (§1) B. infantis 15697 and B. animalis 27536 were tested for growth in the presence of glucose, HMOS, and LNFP I. Growth assays were performed as previously described.^[35] Briefly, two microliters of each resulting overnight culture was used to inoculate 150 μL of modified MRS medium (mMRS), devoid of glucose and supplemented with 2% (wt/vol) of each sterile-filtered substrate as the sole carbohydrate source. The medium was supplemented with 0.05% (wt/vol) 1-cysteine, and in all the cases the cultures in the wells of the microtiter plates were covered with 30 μL of sterile mineral oil to avoid evaporation. The incubations were carried out at 37° C. in an anaerobic chamber (Coy Laboratory Products). Cell growth was monitored in real time by assessing optical density at 600 nm (OD600) using a BioTek PowerWave 340 plate reader (BioTek, Winoosky, Vt.) every 30 min, preceded by 30 seconds of shaking at variable speed. Two biological replicates and three technical replicates each were performed for every strain. Fermentations were carried out in triplicate.

[5] = system: Bifidobacterium animalis subsp. lactis (B. lactis) ATCC 27536; assay: as above; type: cell-based; conditions: 2% (wt/vol) in mMRS, 37° C., anaerobic, OD600
Protocol: as §1

His6-Te2FT [6] = target: T1, His6-Te2FT; assay: Acceptor substrate specificity studies of His6-Te2FT; type: biochemical, Thermosynechococcus elongatus BP-1
[7] = Effect of freeze-dry cycle (lyophilization and rehydration) on His6-Te2FT activity; type: biochemical; conditions: lyophilized, rehydrated
Protocol: Purified His6-Te2FT samples were prepared essentially as described in Example 1, and were dialyzed against 20 mM Tris-HCl without glycerol and lyophilized. The Te2FT powders were stored at −70° C. for 20 days, or for several months. After that, the dried powder was dissolved in water and 20 mM Tris-HCl buffer, respectively. The activities of the lyophilized His6-Te2FT samples were compared with the same amount and concentration of freshly prepared Te2FT samples. The reaction mixture was GDP-fucose (1 mM), Galβ1-3GlcNAcβ2AA, (1 mM), MgCl2 (20 mM), and His6-Te2FT (0.75 μg). All reactions were performed in duplicate and allowed to proceed for 10 minutes at 37° C.

[8] = Effect of temperature on α1-2-fucosyltransferase activity of His6-Te2FT; type: biochemical
Protocol: Assays were carried out in a total volume of 10 μL in a Tris-HCl buffer (pH 6.0, 200 mM) at temperatures ranging from 15° C. to 70° C. The reaction mixture contained GDP-fucose (1 mM), MgCl2 (20 mM), Galβ1-3GlcNAcβ2AA (1 mM), and the recombinant His6-Te2FT (1.5 μg). All reactions were allowed to proceed for 10 minutes at various temperatures. The reaction was stopped by boiling for 2 minutes, and diluted 60-fold for detection.

[9] = pH profile of α1-2-fucosyltransferase activity of His6-Te2FT by HPLC; type: biochemical
Protocol: Each reaction was carried out in duplicate at 37° C. for 10 minutes in a total volume of 10 μL in a buffer (200 mM) with pH varying from 3.0 to 11.0. The buffers used were: Citric, pH 3.0-4.0, NaOAc/HOAc, pH 4.5, MES, pH 5.0-6.5; Tris-HCl, pH 7.0-9.0; and CAPS, pH 10.0-11.0. The reaction system was: GDP-fucose (1 mM), fluorophore 2-anthranilic acid (2AA)-labeled oligosaccharide (Galβ1-3GlcNAcβ2AA, 1 mM), MgCl2 (20 mM), and the recombinant enzyme, His6-Te2FT (0.25 μg). The reaction mixture was stopped by boiling for 2 min and then adding an equal volume of water (10 μL) to make a […] dilution for Galβ1-3GlcNAcβ2AA. The samples were analyzed by a Shimadzu LC-2010A system equipped with a membrane online degasser, a temperature control unit and a fluorescence detector. A reverse-phase Premier C18 column (250×4.6 mm i.d., 5 μm particle size, Shimadzu) protected with a C18 guard column cartridge was used. The mobile phase was 20% acetonitrile. The ratio of the absorbance for fluorescent-labeled product at 315-400 nm was determined.

[10] = pH profile of GDP-fucose hydrolysis of His6-Te2FT by capillary electrophoresis; type: biochemical
Protocol: Each reaction was carried out in duplicate at 37° C. for 30 minutes in a total volume of 10 μL in a buffer (200 mM) with pH varying from 3.0 to 11.0. The buffers used were: Citric, pH 3.0-4.0, NaOAc/HOAc, pH 4.5, MES, pH 5.0-6.5; Tris-HCl, pH 7.0-9.0; and CAPS, pH 10.0-11.0 containing GDP-fucose (1 mM), MgCl2 (20 mM) and the recombinant enzyme (3.75 μg). Reactions were stopped by boiling for 2 min followed by adding an equal volume of water (10 μL) to make a two-fold dilution. The samples were kept on ice until aliquots of 6 μL were withdrawn and analyzed by a Beckman P/ACE MDQ capillary electrophoresis system (60 cm×75 μm i.d.) with a PDA detector. The ratio of the absorbance for GDP-fucose and GDP at 254 nm was determined at different concentrations (2.5, 5, and 10 mM). All assays were carried out in duplicate.

[11] = GDP-Fuc hydrolysis, apparent, pH 9.0, 37° C., MgCl2 20 mM
[12] = acceptor Galβ1-3GlcNAcβ2AA, 37° C., 10 minutes

O[C@H](CS)[C@H](O)CS (racemic) [DTT, dithiothreitol]
effect on α1-2-fucosyltransferase activity (His6-Te2FT [1]): decreased His6-Te2FT activity moderately

O=C(O)CN(CCN(CC(=O)O)CC(=O)O)CC(=O)O [EDTA, ethylenediaminetetraacetic acid]
effect on α1-2-fucosyltransferase activity (His6-Te2FT [1]): decreased its activity only slightly

C[C@@H]1O[C@H](OP(=O)(O)OP(=O)(O)OC[C@H]2O[C@@H](n3cnc4c(=O)[nH]c(N)nc43)[C@H](O)[C@@H]2O)[C@@H](O)[C@H](O)[C@@H]1O [GDP-fucose, Guanosine 5′-diphosphate-fucose]
Km (His6-Te2FT [2]): 730 ± 680 µM
kcat (His6-Te2FT [2]): 0.438 ± 0.013 s⁻¹
kcat value for GDP-fucose, higher compared to GST-WbsJ (His6-Te2FT [2]; His6-Te2FT versus GST-WbsJ, acceptor Galβ1-3GlcNAcβ2AA): 201 fold
kcat value for GDP-fucose, higher compared to His6Prop-WgbL (His6-Te2FT [2]; His6-Te2FT versus His6Prop-WgbL, acceptor Galβ1-3GlcNAcβ2AA): 6.7 fold
kcat value for GDP-fucose, higher compared to Hp2FT (His6-Te2FT [2]; His6-Te2FT versus Hp2FT, acceptor Galβ1-3GlcNAcβ2AA): 14.6 fold
kcat/KM value for GDP-Fuc, higher than WbgL (His6-Te2FT [2]; His6-Te2FT versus WbgL): 2.5 fold
kcat/KM value for GDP-Fuc, higher than WbsJ (His6-Te2FT [2]; His6-Te2FT versus WbsJ): 29.2 fold
Km (His6-Te2FT [3]; [11]): 560 ± 210 µM
kcat (His6-Te2FT [3]; [11]): 0.005 ± 0.001 s⁻¹
GDP-fucose (donor) hydrolysis activity weaker than α1-2-fucosyltransferase activity (His6-Te2FT [3]; His6-Te2FT, ratio of kcat/KM): 47 fold

CC(=O)N[C@H]1[C@H](O[C@H]2[C@@H](O)[C@@H](CO)O[C@@H](O[C@H]3[C@H](O)[C@@H](O)C(O)O[C@@H]3CO)[C@@H]2O)O[C@H](CO)[C@@H](O)[C@@H]1O[C@@H]1O[C@H](CO)[C@H](O)[C@H](O)[C@H]1O[C@@H]1O[C@@H](C)[C@@H](O)[C@@H](O)[C@@H]1O (some centres unmarked) [LNFP I, Fucα1-2Galβ1-3GlcNAcβ1-3Galβ1-4Glc]
growth compared with growth on glucose [4]: remarkably faster
growth with substrate as sole carbon source [4]: grew well; also recorded: selectively consumed as a carbon source
growth with substrate as sole carbon source [5]: failed to grow

[Cl-].[Cl-].[Mg+2] [Mg^2+, MgCl2]
enhancement of α1-2-fucosyltransferase activity (His6-Te2FT [1]): about two-fold

[Cl][Mn][Cl] [Mn^2+, MnCl2]
enhancement of α1-2-fucosyltransferase activity (His6-Te2FT [1]): about two-fold

Gal1-3GlcNAcαOR
suitability as acceptor substrate for adding α1-2-linked fucose (His6-Te2FT [6]): worked well

Gal β1-3GlcNAcβ1-3Galβ1-4Glc [LNT]
suitability as acceptor substrate for adding α1-2-linked fucose (His6-Te2FT [6]): excellent acceptor

Galβ1-3GalNAcαOR
suitability as acceptor substrate for adding α1-2-linked fucose (His6-Te2FT [6]): worked well

Galβ1-3GalNAcβOR
suitability as acceptor substrate for adding α1-2-linked fucose (His6-Te2FT [6]): worked well

Galβ1-3GlcNAcβ2AA
Km (His6-Te2FT [2]): 790 ± 110 µM
kcat (His6-Te2FT [2]): 0.333 ± 0.012 s⁻¹
affinity for the acceptor compared to GST-WbsJ, His6Prop-WgbL and Hp2FT (His6-Te2FT [2]; His6-Te2FT versus other 2FTs): higher affinity

Galβ1-3GlcNAcβOR
suitability as acceptor substrate for adding α1-2-linked fucose (His6-Te2FT [6]): worked well

Galβ1-4GlcNAcβOR
suitability as acceptor substrate for adding α1-2-linked fucose (His6-Te2FT [6]): not good acceptors

Galβ1-4GlcβOR
suitability as acceptor substrate for adding α1-2-linked fucose (His6-Te2FT [6]): not good acceptors

B1: His6-Te2FT: N-His6-tagged recombinant α1-2-fucosyltransferase from Thermosynechococcus elongatus BP-1 (SEQ ID NO:1) (protein, listed as Thermosynechococcus elongatus)
chain: MIIVHLCGGLGNQMFQYAAGLAAAHRIGSEVKFDTHWFDATCLHQGLELRRVFGLELPEPSSKDLRKVLGACVHPAVRRLLAGHFLHGLRPKSLVIQPHFHYWTGFEHLPDNVYLEGYWQSERYFSNIADIIRQQFRFVEPLDPHNAALMDEMQSGVSVSLHIRRGDYFNNPQMRRVHGVDLSEYYPAAVATMIEKTNAERFYVFSDDPQWVLEHLKLPVSYTVVDHNRGAASYRDMQLMSACRHHIIANSTFSWWGAWLNPRPDKVVIAPRHWFNVDVFDTRDLYCPGWIVL
modifications: N-terminal His6 tag
stability to freeze-dry treatment [7]: can survive a freeze-dry treatment
requirement of a divalent metal ion for α1-2-fucosyltransferase activity (His6-Te2FT [1]): not required
activity at low temperature ([8]; 15° C. and 20° C.): Low activity
activity at high temperature ([8]; 65° C. or 70° C.): minimal activity
temperature range in which active ([8]; pH 6.0, 10 minutes): 25-60 °C
temperature range of optimal activities ([8]; pH 6.0, 10 minutes): 30-45 °C
pH of optimal activities [9, 12]: 4.5-6.0
pH range in which active [9, 12]: 4.0-10.0
activity as % of the optimal activity ([9]; pH 6.5): About 85%
optimal pH for the GDP-fucose hydrolysis activity ([10]; 37° C., 30 minutes): 9.5
donor hydrolysis activity ([10]; pH range 5.0-8.0, 15-fold more enzyme and 3-fold longer reaction time): at a minimum
